The values below come from BindingDB's records for doi:10.1021/acs.jmedchem.5b01331 (2016).

Structures are written as SMILES.

The assay can be described thus: Antagonist activity at recombinant human GPR55 expressed in HEK293 cells assessed as inhibition of LPI mediated receptor activation by measuring LPI EC50 after 5 mins by xCELLigence assay (Rvb = 1.6 to 4.1 nM).
As a reminder, the EC50 is the concentration needed to bring the measured effect to its halfway point. In the case of `COc1ccc2c(c1)OC(C)(C)c1cn(CCN3CCN(C(=O)C4CCCO4)CC3)nc1-2` (centres undefined), the half-maximal effective concentration (EC50) turned out to be 25 nM.
As for `COc1ccc2c(c1)OC(C)(C)c1cn(CCN3CCN(C(=O)c4ccccc4)CC3)nc1-2`, the EC50 came out at 16 nM.
Turning to `COc1ccc(N2CCN(CC(=O)NCn3ncc4c3-c3ccc(OC)cc3OC4(C)C)CC2)cc1`, the EC50 was 27 nM.
For `COc1ccc2c(c1)OC(C)(C)c1cn(CNC(=O)CN3CCN(c4cccc(C)c4C)CC3)nc1-2`, the EC50 turned out to be 30 nM.
For `COc1ccc2c(c1)OC(C)(C)c1cn(CNC(=O)CN3CCN(c4ccccc4OC)CC3)nc1-2` the value was 28 nM; for `COc1ccc2c(c1)OC(C)(C)c1cn(CNC(=O)CN3CCN(c4ccccc4)CC3)nc1-2`, 32 nM; for `COc1ccc2c(c1)OC(C)(C)c1cnn(CNC(=O)CN3CCN(c4ccccc4)CC3)c1-2`, 28 nM.
For `COc1ccc2c(c1)OC(C)(C)c1cnn(CCN3CCN(C(=O)c4cccs4)CC3)c1-2`, the EC50 is 29 nM.
Regarding `COc1ccc2c(c1)OC(C)(C)c1cnn(CCN3CCN(C(=O)c4ccco4)CC3)c1-2`, the EC50 was found to be 20 nM.
